Laboratory results taken from patent US20240067693A1, “POLYPEPTIDES AND USES THEREOF” (MEDIMMUNE LIMITED, priority 2020, published 2024).
Numbered stars: 1 amine (or outer) side, 2 acyl side, 3 side chain; on linkers, the order of the positions; unused ones are H or OH. Bridge positions count the residues as written; N and C are the ends. Square brackets hold non-standard residues; d marks the D form. Side chains are listed from the residue outwards. Peptide text beside a SMILES is read from it. * marks the point of attachment. C18 diacid = O=C(O)CCCCCCCCCCCCCCCCC(=O)*; γGlu = O=C(O)[C@H](CCC(=O)[*:2])N[*:1]; Dab = NCC[C@H](N)C(=O)O; Aib = CC(C)(N)C(=O)O

Columns and labels:
[1] = biological target: T1, human amylin receptor (calcitonin receptor co-expressed with receptor activity modifying protein, RAMP3) (hAMYR3) (Homo sapiens, UniProt O60896+P30988); experiment: cAMP production in 1321N1 cells with stable recombinant expression of human amylin receptor (hAMYR3); type: cell-based; conditions: for Ratio (selectivity hAMYR vs hCTR, ratio of EC50 values at the two receptors): EC50 hCTR / EC50 hAMYR3; for EC50: cAMP, 1321N1 cells, assay buffer with 0.1% BSA, read-out: EC50 (pM) hAMYR3
T1 construct: expressed in transfected cells
T1 sequence (P30988 25-474): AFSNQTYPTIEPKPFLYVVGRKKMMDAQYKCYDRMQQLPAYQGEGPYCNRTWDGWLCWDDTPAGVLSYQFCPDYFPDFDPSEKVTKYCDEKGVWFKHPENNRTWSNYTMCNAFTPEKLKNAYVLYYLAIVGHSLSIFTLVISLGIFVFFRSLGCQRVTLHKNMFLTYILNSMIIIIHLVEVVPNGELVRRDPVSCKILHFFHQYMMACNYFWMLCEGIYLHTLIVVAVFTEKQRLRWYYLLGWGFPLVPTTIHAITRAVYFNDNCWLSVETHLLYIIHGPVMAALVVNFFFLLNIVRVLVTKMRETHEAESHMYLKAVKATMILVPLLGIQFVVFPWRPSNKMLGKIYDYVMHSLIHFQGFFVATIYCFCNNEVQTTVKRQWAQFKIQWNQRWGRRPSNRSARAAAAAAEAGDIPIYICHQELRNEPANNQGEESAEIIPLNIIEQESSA
T1 sequence (O60896 24-148 partner): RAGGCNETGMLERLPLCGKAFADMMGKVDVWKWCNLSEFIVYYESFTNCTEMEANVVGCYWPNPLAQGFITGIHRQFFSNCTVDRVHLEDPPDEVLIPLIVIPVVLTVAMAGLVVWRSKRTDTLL
Procedure, shortened: (§1)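 Thawed cells in HBSS/0.1% BSA/25 mM HEPES pH 7.4 with 0.5 mM IBMX were incubated with peptides 30 min at room temperature; cAMP read by HTRF. EC50 from 4-parameter fit of % activation relative to maximal amylin or calcitonin effect.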

[2] = biological target: T2, human calcitonin receptor (hCTR) (Homo sapiens, UniProt P30988); experiment: cAMP production in 1321N1 cells with stable recombinant expression of human calcitonin receptor (hCTR); type: cell-based; conditions: cAMP, 1321N1 cells, assay buffer with 0.1% BSA; read-out: EC50 (pM) hCTR
T2 construct: expressed in transfected cells
T2 sequence (P30988 25-474): T1 sequence (P30988 25-474)
Procedure, shortened: as §1

| Ratio (selectivity hAMYR vs hCTR, ratio of EC50 values at the two receptors) [1] | EC50 [1] [pM] | EC50 [2] [pM] | SMILES |
| --- | --- | --- | --- |
| 6 | 470 | 2950 | CC[C@H](C)[C@H](NC(=O)[C@@H]1CCCN1C(=O)CNC(=O)[C@H](Cc1ccccc1)NC(=O)[C@H](CC(N)=O)NC(=O)C(C)(C)NC(=O)[C@H](CO)NC(=O)[C@H](CO)NC(=O)[C@H](Cc1c[nH]cn1)NC(=O)[C@@H](NC(=O)[C@H](CC(C)C)NC(=O)[C@H](Cc1ccccc1)NC(=O)[C@H](CC(N)=O)NC(=O)[C@H](C)NC(=O)[C@H](CC(C)C)NC(=O)[C@H](CCCNC(=N)N)NC(=O)[C@H](CCC(N)=O)NC(=O)[C@@H](NC(=O)[C@H](C)NC(=O)[C@@H]1CSSC[C@H](NC(=O)[C@H](CCCCN)NC(=O)[C@@H](N)CCCCNC(=O)CC[C@H](NC(=O)CCCCCCCCCCCCCCCCC(=O)O)C(=O)O)C(=O)N[C@@H](CC(N)=O)C(=O)N[C@@H]([C@@H](C)O)C(=O)N[C@@H](C)C(=O)N[C@@H]([C@@H](C)O)C(=O)N1)[C@@H](C)O)C(C)C)C(=O)N[C@@H](CC(C)C)C(=O)N1CCC[C@H]1C(=O)N1CCC[C@H]1C(=O)N[C@H](C(=O)N[C@@H](CC(N)=O)C(=O)N[C@H](C(=O)NCC(=O)N[C@@H](CO)C(=O)N[C@@H](CCC(=O)O)C(=O)N[C@H](C(=O)N[C@@H](Cc1ccc(O)cc1)C(N)=O)[C@@H](C)O)C(C)C)[C@@H](C)O [Peptide 42, K(γE-C18diacid)K[CNTATC]ATQRLANFLVHSS(Aib)NFGPILPPTNVGSETY-amide] (H-K([γGlu-C18 diacid])KCNTATCATQRLANFLVHSS[Aib]NFGPILPPTNVGSETY-NH2; disulfide 3-8) |
| 5 | 134 | 731 | CC[C@H](C)[C@@H]1NC(=O)[C@H](CC(N)=O)NC(=O)[C@@H](NC(=O)[C@@H](N)CCCCNC(=O)CC[C@H](NC(=O)CC[C@H](NC(=O)CCCCCCCCCCCCCCCCC(=O)O)C(=O)O)C(=O)O)CSSC[C@@H](C(=O)N[C@@H](C)C(=O)N[C@H](C(=O)N[C@@H](CCC(N)=O)C(=O)N[C@@H](CCCNC(=N)N)C(=O)N[C@@H](CC(C)C)C(=O)N[C@@H](C)C(=O)N[C@@H](CC(N)=O)C(=O)N[C@@H](Cc2ccccc2)C(=O)N[C@@H](CC(C)C)C(=O)N[C@H](C(=O)N[C@@H](Cc2c[nH]cn2)C(=O)N[C@@H](CO)C(=O)N[C@@H](CO)C(=O)N[C@@H](CCN)C(=O)N[C@@H](CC(N)=O)C(=O)N[C@@H](Cc2ccccc2)C(=O)NCC(=O)N2CCC[C@H]2C(=O)N[C@H](C(=O)N[C@@H](CC(C)C)C(=O)N2CCC[C@H]2C(=O)N2CCC[C@H]2C(=O)N[C@H](C(=O)N[C@@H](CC(N)=O)C(=O)N[C@H](C(=O)NCC(=O)N[C@@H](CO)C(=O)N[C@@H](CCCNC(=N)N)C(=O)N[C@H](C(=O)N[C@@H](Cc2ccc(O)cc2)C(N)=O)[C@@H](C)O)C(C)C)[C@@H](C)O)[C@@H](C)CC)C(C)C)[C@@H](C)O)NC(=O)[C@H]([C@@H](C)O)NC(=O)[C@H](C)NC1=O [Peptide 27, K(γE-γE-C18diacid)[CNIATC]ATQRLANFLVHSS(Dab)NFGPILPPTNVGSRTY-amide] (H-K([γGlu-γGlu-C18 diacid])CNIATCATQRLANFLVHSS[Dab]NFGPILPPTNVGSRTY-NH2; disulfide 2-7; N-terminus assumed) |
| 7 | 473 | 3420 | CC(C)C[C@H](NC(=O)[C@H](CCCNC(=N)N)NC(=O)[C@H](CCC(N)=O)NC(=O)[C@@H](NC(=O)[C@H](C)NC(=O)[C@@H]1CSSC[C@H](NC(=O)[C@H](CCCCN)NC(=O)[C@@H](N)CCCCNC(=O)CC[C@H](NC(=O)CCCCCCCCCCCCCCCCC(=O)O)C(=O)O)C(=O)N[C@@H](CC(N)=O)C(=O)N[C@@H]([C@@H](C)O)C(=O)N[C@@H](C)C(=O)N[C@@H]([C@@H](C)O)C(=O)N1)[C@@H](C)O)C(=O)N[C@@H](C)C(=O)N[C@@H](CC(N)=O)C(=O)N[C@@H](Cc1ccccc1)C(=O)N[C@@H](CC(C)C)C(=O)N[C@H](C(=O)N[C@@H](Cc1c[nH]cn1)C(=O)N[C@@H](CO)C(=O)N[C@@H](CO)C(=O)N[C@@H](CC(N)=O)C(=O)N[C@@H](CC(N)=O)C(=O)N[C@@H](Cc1ccccc1)C(=O)NCC(=O)N1CCC[C@H]1C(=O)NC(C)(C)C(=O)N[C@@H](CC(C)C)C(=O)N1CCC[C@H]1C(=O)N1CCC[C@H]1C(=O)N[C@H](C(=O)N[C@@H](CC(N)=O)C(=O)N[C@H](C(=O)NCC(=O)N[C@@H](CO)C(=O)N[C@@H](CC(N)=O)C(=O)N[C@H](C(=O)N[C@@H](Cc1ccc(O)cc1)C(N)=O)[C@@H](C)O)C(C)C)[C@@H](C)O)C(C)C [Peptide 106, K(γE-C18diacid)K[CNTATC]ATQRLANFLVHSSNNFGP(Aib)LPPTNVGSNTY-amide] (H-K([γGlu-C18 diacid])KCNTATCATQRLANFLVHSSNNFGP[Aib]LPPTNVGSNTY-NH2; disulfide 3-8; N-terminus assumed) |
| 43 | 167 | 7250 | CC[C@H](C)[C@H](NC(=O)[C@@H]1CCCN1C(=O)CNC(=O)[C@H](Cc1ccccc1)NC(=O)[C@H](CC(N)=O)NC(=O)C(C)(C)NC(=O)[C@H](CO)NC(=O)[C@H](CO)NC(=O)[C@H](Cc1c[nH]cn1)NC(=O)[C@@H](NC(=O)[C@@H](CC(C)C)NC(=O)[C@H](Cc1ccccc1)NC(=O)[C@H](CC(N)=O)NC(=O)[C@H](C)NC(=O)[C@H](CC(C)C)NC(=O)[C@H](CCCNC(=N)N)NC(=O)[C@H](CCC(N)=O)NC(=O)[C@@H](NC(=O)[C@H](C)NC(=O)[C@@H]1CSSC[C@H](NC(=O)[C@@H](N)CCCCNC(=O)CC[C@H](NC(=O)CCCCCCCCCCCCCCCCC(=O)O)C(=O)O)C(=O)N[C@@H](CC(N)=O)C(=O)N[C@@H]([C@@H](C)O)C(=O)N[C@@H](C)C(=O)N[C@@H]([C@@H](C)O)C(=O)N1)[C@@H](C)O)C(C)C)C(=O)N[C@@H](CC(C)C)C(=O)N1CCC[C@H]1C(=O)N1CCC[C@H]1C(=O)N[C@H](C(=O)N[C@@H](CC(N)=O)C(=O)N[C@H](C(=O)NCC(=O)N[C@@H](CO)C(=O)N[C@@H](CC(N)=O)C(=O)N[C@H](C(=O)N[C@@H](Cc1ccc(O)cc1)C(N)=O)[C@@H](C)O)C(C)C)[C@@H](C)O [Peptide 62, K(γE-C18diacid)[CNTATC]ATQRLANF(dL)VHSS(Aib)NFGPILPPTNVGSNTY-amide] (H-K([γGlu-C18 diacid])CNTATCATQRLANF[dL]VHSS[Aib]NFGPILPPTNVGSNTY-NH2; disulfide 2-7) |
| 107 | 209 | 22300 | CC[C@H](C)[C@H](NC(=O)[C@@H]1CCCN1C(=O)CNC(=O)[C@H](Cc1ccccc1)NC(=O)[C@H](CC(N)=O)NC(=O)C(C)(C)NC(=O)[C@H](CO)NC(=O)[C@H](CO)NC(=O)[C@H](Cc1c[nH]cn1)NC(=O)[C@H](CCCNC(=N)N)NC(=O)[C@H](CC(C)C)NC(=O)[C@H](Cc1ccccc1)NC(=O)[C@H](CC(N)=O)NC(=O)[C@H](C)NC(=O)[C@H](CC(C)C)NC(=O)[C@H](CCCNC(=N)N)NC(=O)[C@H](CCC(N)=O)NC(=O)[C@@H](NC(=O)[C@H](C)NC(=O)[C@@H]1CSSC[C@H](NC(=O)[C@@H](N)CCCCNC(=O)CC[C@H](NC(=O)CCCCCCCCCCCCCCCCC(=O)O)C(=O)O)C(=O)N[C@@H](CC(N)=O)C(=O)N[C@@H]([C@@H](C)O)C(=O)N[C@@H](C)C(=O)N[C@@H]([C@@H](C)O)C(=O)N1)[C@@H](C)O)C(=O)N[C@@H](CC(C)C)C(=O)N1CCC[C@H]1C(=O)N1CCC[C@H]1C(=O)N[C@H](C(=O)N[C@@H](CCCNC(=N)N)C(=O)N[C@H](C(=O)NCC(=O)N[C@@H](CO)C(=O)N[C@@H](CC(N)=O)C(=O)N[C@H](C(=O)N[C@@H](Cc1ccc(O)cc1)C(N)=O)[C@@H](C)O)C(C)C)[C@@H](C)O [Peptide 76, K(γE-C18diacid)[CNTATC]ATQRLANFLRHSS(Aib)NFGPILPPTRVGSNTY-amide] (H-K([γGlu-C18 diacid])CNTATCATQRLANFLRHSS[Aib]NFGPILPPTRVGSNTY-NH2; disulfide 2-7; N-terminus assumed) |
